Test results taken from paper PMC10341634, “Vasodilating Effects of Antispasmodic Agents and Their Cytotoxicity in Vascular Smooth Muscle Cells and Endothelial Cells—Potential Application in Microsurgery” (International Journal of Molecular Sciences, 2023).
Read-outs that look alike come from different tables or passages of the source.

How the values were obtained:
[1] = system: human coronary artery endothelial cells (HCAECs); experiment: cells
Protocol: Human coronary artery ECs were cultured in a collagen-coated dish (AGC TECHNO GLASS Co., Shizuoka, Japan) in EBM-2 (CC-3156, Lonza, Besel, Switzerland) containing Supplements and Growth Factors (CC-4176, Lonza, Besel, Switzerland). The cells were cultured at 37 °C in a 5% CO2 incubator. The medium was changed every three days until the adherent cell monolayer reached 70–80% subconfluence. Subsequently, cells were detached from the dish using Accutase. The cell suspension was diluted with medium, adjusted to a concentration of 5 × 10^4 cells/mL, and seeded into a 96-well plate. The dish was incubated for two days at 37 °C in a 5% CO2 incubator. En ECs at passages 5–6 were used, and five 96-well plates were prepared.
(§1) IC50 is the drug concentration at which half of the cells undergo cell death; it serves as an indicator of cellular toxicity. […] IC50 values were measured using the GloMax® Navigator System (Promega, Madison, WI, USA). The test compounds were diluted in the culture medium and stored in an incubator until use. […] For each test compound, a control and 11 different concentrations were prepared, and the cytotoxicity after the addition of the compounds was examined. The RealTime-GloTM MT Cell Viability Assay kit (Promega, cat#G9711, USA) was used, and the substrate and Nano-luc were added to the medium in each well of a 96-well plate seeded with RSMCs and HCAECs, with 50 μL per well. The plate was incubated for 1–3 h in the incubator. Then, 50 μL of each prepared test compound was added to the plate. The IC50 values were measured using GloMax at 1, 5, 10, 30, and 60 min after the addition of the test compounds, and cytotoxicity was evaluated.

[2] = system: rat smooth muscle cells (RSMCs); experiment: cells
Protocol: Rat smooth muscle cells were cultured in DMED:F12 (Lonza, Besel, Switzerland) containing 10% fetal bovine serum, 1% penicillin/streptomycin solution (GA-1000; Lonza, Basel, Switzerland), and 1% stable glutamine (Wako, Tokyo, Japan) at 37 °C in a 5% CO2 incubator. The medium was changed every three days. Once the adherent cells reached 70–80% subconfluence, they were detached from the dish using Accutase (Nacalai Tesque, Kyoto, Japan). The cell suspension was diluted with DMED:F12 (+FBS) and adjusted to a concentration of 5 × 10^4 cells/mL, and then 100 μL of the suspension was seeded into each well of a 96-well dish (Nunc™ MicroWell™ 96-Well, Nunclon Delta-Treated, Flat-Bottom Microplate, Thermo Fisher, Waltham, MA, USA) and incubated for two days at 37 °C in a 5% CO2 incubator. Passage 6 smooth muscle cells were used, and five 96-well plates were prepared.
as §1

rat abdominal aorta [3] = experiment: Wire myograph vasodilation of norepinephrine-contracted rat abdominal aorta rings; details: for concentration achieving maximal vasodilation effect (approximately 100% relaxation): 10 min after administration, contraction induced by 5 μM norepinephrine
Protocol: Consistent with our previous study, we applied a 1 gram-force (gf) load to approximately 1 mm cross-sectional slices of the rat abdominal aorta. Subsequently, we induced contraction by adding 5 μM norepinephrine. Various vasodilators were then added, and the concentration at which the vessels relaxed back to 1 gf was considered the concentration required for 100% relaxation.
A wire myograph system (Bio Research Co., Osaka, Japan) was used, as previously reported by Ogawa et al.. The rat abdominal aortae were cut into rings and manipulated using two L-shaped hooks. One hook was fixed, and the other was connected to an amplifier to measure the force exerted on the pulled vessel in grams. The rats were deeply anesthetized, and the abdominal aorta was dissected. The excised vessels were immersed in Ringer solution (NaCl 118 mM, KCl 4.7 mM, CaCl2/2H2O 2.5 mM, MgSO4/7H2O 1.2 mM, KH2PO4 1.2 mM, NaHCO3 25 mM, C6H12O6 11 mM, Na2EDTA 0.5 mM). The rat aorta was then sliced into approximately 1 mm-wide rings and hooked onto L-shaped hooks. The chamber was filled with 3 mL of Krebs-Ringer solution, and a gas mixture of 95% O2 and 5% CO2 was bubbled through. The chamber was maintained at 37 °C.
Once the wire myograph system was initiated, the wire was moved, and a load was exerted on the hook-attached chamber. The applied tensile force, amplified by a transducer and PowerLab (ADInstruments, Bella Vista, New South Wales, Australia), was continuously recorded as gram force using LabChart (ADInstruments, Bella Vista, New South Wales, Australia). The hook is pulled to apply a load of up to 1 gf. A resting period of approximately 10 min was required for the gradual relaxation of the vessel under tension from the hook. When relaxation reached a plateau, norepinephrine was added to the solution to achieve a final concentration of 5 μM. This causes the vessel to contract, increasing the load on the artery and surpassing 1 gf on the myograph recording. […] The reduction in load on the vessel in terms of gf was assessed to determine the relaxation rate and concentration (Figure 4). […]

[4] = cited from earlier work
[5] = design: method as in PMID 25357051; details: cited from earlier work
[6] = system: rat testicular vasculature; design: method as in doi:10.1007/BF00585581; details: local administration after epinephrine-induced vasoconstriction; cited from earlier work
[7] = system: NE-dependent contractions; details: cited from earlier work
[8] = 4% lidocaine administered locally; humans; cited from earlier work
rat abdominal aorta [9] = details: cited from earlier work
[10] = 1% lidocaine; cited from earlier work
[11] = Homo sapiens, Endothelial cell, 1 min, read-out: IC50 (cell viability)
[12] = Homo sapiens, Endothelial cell, 5 min, read-out: IC50 (cell viability)
[13] = Homo sapiens, Endothelial cell, 10 min, read-out: IC50 (cell viability)
[14] = Homo sapiens, Endothelial cell, 0.5 h, read-out: IC50 (cell viability)
[15] = Homo sapiens, Endothelial cell, 1 h, read-out: IC50 (cell viability)
[16] = Rattus norvegicus, 1 min, read-out: IC50 (cell viability), RSMCs, 1 min after addition
[17] = Rattus norvegicus, 5 min, read-out: IC50 (cell viability), RSMCs, 5 min after addition
[18] = Rattus norvegicus, 10 min, read-out: IC50 (cell viability), RSMCs, 10 min after addition
[19] = Rattus norvegicus, 0.5 h, read-out: IC50 (cell viability), RSMCs, 30 min after addition
[20] = Rattus norvegicus, 1 h, read-out: IC50 (cell viability), RSMCs, 60 min after addition
[21] = read-out: IC50 (cell viability), RSMCs, 1 min after addition

| Compound | cellular toxicity [1] | cellular toxicity [2] | concentration achieving maximal vasodilation effect (approximately 100% relaxation) (rat abdominal aorta [3]) [mM] | IC50 [1, 11] [µM] | IC50 [1, 12] [µM] | IC50 [1, 13] [µM] | IC50 [1, 14] [µM] | IC50 [1, 15] [µM] | IC50 [2, 16] [µM] | IC50 [2, 17] [µM] | IC50 [2, 18] [µM] | IC50 [2, 19] [µM] | IC50 [2, 20] [µM] | IC50 [2, 21] [µM] | further results |
| --- | --- | --- | --- | --- | --- | --- | --- | --- | --- | --- | --- | --- | --- | --- | --- |
| Cc1[nH]c(=O)c(C#N)cc1-c1ccc2nccn2c1 [Olprinone, olprinone] | No cellular toxicity was observed | No cellular toxicity was observed |  |  |  |  |  |  |  |  |  |  |  |  |  |
| COc1ccc(Cc2nccc3cc(OC)c(OC)cc23)cc1OC [Papaverine, papaverine] |  |  | 0.18 | 56 | 4.04 | 4.29 | 5 | 6.48 | 100 | 118 | 13.5 | 15.9 | 1.5 | 97 | time until effects become evident ([4]; after local administration): 1 to 5 min; pH of clinically used concentrations [5]: 3–4.5; IC50 ([2]; read-out: IC50 (cell viability), RSMCs, 1 min after addition, listed as papaverine hydrochloride): 97 µM; IC50 ([2]; read-out: IC50 (cell viability), RSMCs, 60 min after addition): 1.46 µM |
| Cc1ccc(N(CC2=NCCN2)c2cccc(O)c2)cc1 [Phentolamine, phentolamine] | No cellular toxicity was observed | No cellular toxicity was observed |  |  |  |  |  |  |  |  |  |  |  |  | onset of the effect [6]: ≤ 2 min; sustained effect [6]: up to 20 min |
| O=[N+]([O-])OCC(CO[N+](=O)[O-])O[N+](=O)[O-] [Nitroglycerine, nitroglycerin] |  |  | 0.022 |  |  |  |  |  |  |  |  | 130 | 109 |  | relaxation (rat abdominal aorta [3]; at the investigated concentrations, 10 min, 5 μM norepinephrine): approximately 50%; IC50 ([1]; Homo sapiens, Endothelial cell, 10 min, read-out: IC50 (cell viability), HCAECs, 10 min after addition): 35 µM; IC50 ([1]; Homo sapiens, Endothelial cell, 0.5 h, read-out: IC50 (cell viability), HCAECs, 30 min after addition): 38 µM; IC50 ([1]; Homo sapiens, Endothelial cell, 1 h, read-out: IC50 (cell viability), HCAECs, 60 min after addition): 38.8 µM; IC50 ([1]; read-out: IC50 (cell viability), HCAECs, 10 min after addition): 35.1 µM; IC50 ([2]; read-out: IC50 (cell viability), RSMCs, 30 min after addition): 134 µM |
| CCN(CC)CC(=O)Nc1c(C)cccc1C [Lidocaine, lidocaine] |  |  |  | 24400 | 16800 | 13500 | 10300 | 7640 | 55300 | 27900 | 16700 | 10100 | 7100 | 55300 | IC50 expressed as percent concentration ([1]; EC, 1-min post-dose): 0.70%; high concentrations relieving NE-dependent contractions and increasing blood flow [7]: 4.5 to 15 mM; low concentrations causing vasoconstriction [7]: 15 to 1500 µM; duration of antispasmodic effect [4]: 10 to 20 min; onset of antispasmodic effect [4]: 45 to 90 s; peak concentration measured in peripheral blood [8]: 1.5 µg/mL; relaxation (rat abdominal aorta [9]; 1% lidocaine for 10 min): approximately 100%; concentration achieving maximal vasodilation effect (approximately 100% relaxation) (rat abdominal aorta [9]; 10 min after administration, 5 μM norepinephrine, lidocaine data from previous research): 35 mM; osmotic pressure [10]: 282 mOsm/L; IC50 expressed as percent concentration ([2]; SMC, 1-min post-dose): 1.58%; IC50 ([2]; read-out: IC50 (cell viability), RSMCs, 5 min after addition): 27900 µM; IC50 ([2]; read-out: IC50 (cell viability), RSMCs, 10 min after addition): 16700 µM |
